Measured values as given in patent US8802597B2, “Herbicidal pyrimidines” (E I du Pont de Nemours and Company, priority 2003, dated 2014).

Key:
Format in all cases: in vivo
[1] = tested on: barnyardgrass (Echinochloa crus-galli); test: Test A pre/postemergence
Summary of the method: (§1)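 Compared with untreated controls, treated plants were visually rated for injury on a 0 (none) to 100 (complete control) scale about ten days after spraying. Pre- and postemergence applications used one solvent/surfactant formulation; postemergence plants measured 2–10 cm.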

[2] = tested on: crabgrass (Digitaria sanguinalis); test: Test A pre/postemergence
Summary of the method: as §1

[3] = tested on: giant foxtail (Setaria faberi); test: Test A pre/postemergence
Summary of the method: as §1

[4] = tested on: morningglory (Ipomoea spp.); test: Test A pre/postemergence
Summary of the method: as §1

[5] = tested on: redroot pigweed (Amaranthus retroflexus); test: Test A pre/postemergence
Summary of the method: as §1

[6] = tested on: velvetleaf (Abutilon theophrasti); test: Test A pre/postemergence
Summary of the method: as §1

[7] = tested on: barnyardgrass (Echinochloa crus-galli); test: Test E flooded paddy water application; conditions: Flood, 21 days, scale 0 to 100 (0 no effect, 100 complete control)
Summary of the method: (§2)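 Response scored visually on a 0–100 scale (100 = complete control) at 21 days against untreated pots. Treatment was into paddy water 3 cm deep over silt loam, with plants at the 2.0–2.5-leaf stage, grown under 16-h light at 29.5/26.7 °C day/night.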

[8] = tested on: bearded (brdd.) sprangletop (Leptochloa fusca ssp. fascicularis); test: Test E flooded paddy water application; conditions: Flood, 21 days, scale 0 to 100 (0 no effect, 100 complete control)
Summary of the method: as §2

[9] = tested on: ducksalad (Heteranthera limosa); test: Test E flooded paddy water application; conditions: Flood, 21 days, scale 0 to 100 (0 no effect, 100 complete control)
Summary of the method: as §2

[10] = tested on: early watergrass (Echinochloa oryzoides); test: Test E flooded paddy water application; conditions: Flood, 21 days, scale 0 to 100 (0 no effect, 100 complete control)
Summary of the method: as §2

[11] = tested on: junglerice (Echinochloa colona); test: Test E flooded paddy water application; conditions: Flood, 21 days, scale 0 to 100 (0 no effect, 100 complete control)
Summary of the method: as §2

[12] = tested on: late watergrass (Echinochloa oryzicola); test: Test E flooded paddy water application; conditions: Flood, 21 days, scale 0 to 100 (0 no effect, 100 complete control)
Summary of the method: as §2

[13] = tested on: purple redstem (Ammannia coccinea); test: Test E flooded paddy water application; conditions: Flood, 21 days, scale 0 to 100 (0 no effect, 100 complete control)
Summary of the method: as §2

[14] = tested on: rice flatsedge (Cyperus iria); test: Test E flooded paddy water application; conditions: Flood, 21 days, scale 0 to 100 (0 no effect, 100 complete control)
Summary of the method: as §2

[15] = tested on: smallflower umbrella sedge (Cyperus difformis); test: Test E flooded paddy water application; conditions: Flood, 21 days, scale 0 to 100 (0 no effect, 100 complete control)
Summary of the method: as §2

[16] = tested on: transplanted rice seedlings (Oryza sativa cv. ‘Japonica-M202’); test: Test E flooded paddy water application; conditions: Flood, 21 days, scale 0 to 100 (0 no effect, 100 complete control)
Summary of the method: as §2

[17] = tested on: water seeded rice seedlings (Oryza sativa cv. ‘Japonica-M202’); test: Test E flooded paddy water application; conditions: Flood, 21 days, scale 0 to 100 (0 no effect, 100 complete control)
Summary of the method: as §2

[18] = Postemergence, 125 g ai/ha, 0 to 100 scale (0 no effect, 100 complete control)
[19] = Postemergence, 500 g ai/ha, 0 to 100 scale (0 no effect, 100 complete control)
[20] = Preemergence, 125 g ai/ha, 0 to 100 scale where 0 is no effect and 100 is complete control, approximately ten days
[21] = Preemergence, 500 g ai/ha, 0 to 100 scale where 0 is no effect and 100 is complete control, approximately ten days

CNc1nc(-c2ccc(Cl)cc2)nc(C(=O)OC)c1Cl [Compound 111]
20: Plant response rating, Morningglory [4, 18] | Redstem plant response rating ([13]; 32 g ai/ha)
100: Ducksalad plant response rating ([9]; 125 g ai/ha) | Ducksalad plant response rating ([9]; 250 g ai/ha)
5: Plant response rating, Crabgrass [2, 18]
30: Plant response rating, Crabgrass [2, 19] | Redstem plant response rating ([13]; 64 g ai/ha) | Redstem plant response rating ([13]; 125 g ai/ha)
55: Plant response rating, Pigweed [5, 18]
10: Plant response rating, Barnyardgrass [1, 19]
75: Plant response rating, Velvetleaf [6, 18] | Redstem plant response rating ([13]; 250 g ai/ha) | Sedge, Umbrella plant response rating ([15]; 250 g ai/ha)
0: Plant response rating, Barnyardgrass [1, 18] | Plant response rating, Barnyardgrass [1, 20] | Plant response rating, Barnyardgrass [1, 21] | Plant response rating, Crabgrass [2, 20] | Plant response rating, Crabgrass [2, 21] | Plant response rating, Foxtail, Giant [3, 18] | Plant response rating, Foxtail, Giant [3, 19] | Plant response rating, Foxtail, Giant [3, 20] | Plant response rating, Foxtail, Giant [3, 21] | Plant response rating, Morningglory [4, 20] | Plant response rating, Morningglory [4, 21] | Plant response rating, Pigweed [5, 20] | Plant response rating, Pigweed [5, 21] | Plant response rating, Velvetleaf [6, 20] | Plant response rating, Velvetleaf [6, 21] | Barnyardgrass plant response rating ([7]; 32 g ai/ha) | Barnyardgrass plant response rating ([7]; 64 g ai/ha) | Barnyardgrass plant response rating ([7]; 125 g ai/ha) | Barnyardgrass plant response rating ([7]; 250 g ai/ha) | Plant response rating, Barnyardgrass ([7]; 16 g ai/ha) | Sprangletop, Brdd. plant response rating ([8]; 32 g ai/ha) | Sprangletop, Brdd. plant response rating ([8]; 64 g ai/ha) | Sprangletop, Brdd. plant response rating ([8]; 125 g ai/ha) | Sprangletop, Brdd. plant response rating ([8]; 250 g ai/ha) | Plant response rating, Sprangletop, Brdd. ([8]; 16 g ai/ha) | Ducksalad plant response rating ([9]; 32 g ai/ha) | Plant response rating, Ducksalad ([9]; 16 g ai/ha) | Watergrass, Early plant response rating ([10]; 32 g ai/ha) | Watergrass, Early plant response rating ([10]; 64 g ai/ha) | Watergrass, Early plant response rating ([10]; 125 g ai/ha) | Watergrass, Early plant response rating ([10]; 250 g ai/ha) | Plant response rating, Watergrass, Early ([10]; 16 g ai/ha) | Junglerice plant response rating ([11]; 32 g ai/ha) | Junglerice plant response rating ([11]; 64 g ai/ha) | Junglerice plant response rating ([11]; 125 g ai/ha) | Junglerice plant response rating ([11]; 250 g ai/ha) | Plant response rating, Junglerice ([11]; 16 g ai/ha) | Watergrass, Late plant response rating ([12]; 32 g ai/ha) | Watergrass, Late plant response rating ([12]; 64 g ai/ha) | Watergrass, Late plant response rating ([12]; 125 g ai/ha) | Watergrass, Late plant response rating ([12]; 250 g ai/ha) | Plant response rating, Watergrass, Late ([12]; 16 g ai/ha) | Plant response rating, Redstem ([13]; 16 g ai/ha) | Flatsedge, Rice plant response rating ([14]; 32 g ai/ha) | Flatsedge, Rice plant response rating ([14]; 64 g ai/ha) | Flatsedge, Rice plant response rating ([14]; 125 g ai/ha) | Flatsedge, Rice plant response rating ([14]; 250 g ai/ha) | Plant response rating, Flatsedge, Rice ([14]; 16 g ai/ha) | Sedge, Umbrella plant response rating ([15]; 32 g ai/ha) | Sedge, Umbrella plant response rating ([15]; 64 g ai/ha) | Sedge, Umbrella plant response rating ([15]; 125 g ai/ha) | Plant response rating, Sedge, Umbrella ([15]; 16 g ai/ha) | Rice, Transplanted plant response rating ([16]; 32 g ai/ha) | Rice, Transplanted plant response rating ([16]; 64 g ai/ha) | Rice, Transplanted plant response rating ([16]; 125 g ai/ha) | Rice, Transplanted plant response rating ([16]; 250 g ai/ha) | Plant response rating, Rice, Transplanted ([16]; 16 g ai/ha) | Rice, Water Seeded plant response rating ([17]; 32 g ai/ha) | Rice, Water Seeded plant response rating ([17]; 64 g ai/ha) | Rice, Water Seeded plant response rating ([17]; 125 g ai/ha) | Rice, Water Seeded plant response rating ([17]; 250 g ai/ha) | Plant response rating, Rice, Water Seeded ([17]; 16 g ai/ha)
50: Plant response rating, Morningglory [4, 19]
85: Plant response rating, Pigweed [5, 19] | Plant response rating, Velvetleaf [6, 19] | Ducksalad plant response rating ([9]; 64 g ai/ha)
